Experiments:
[1] = system: PC-3 xenograft tumor; test: PC-3 xenograft tumor growth in nude mice, oral gavage; type: in vivo; conditions: 25 and 50 mg/kg per day by oral gavage, 49-day treatment; in words
Method: FIG. 2 provides three graphs (A-C) showing the in vivo effects of OSU-A9M (C) versus OSU-A9 (A) and OSU-A9 F (B), each at 25 and 50 mg/kg per day by oral gavage, on suppressing PC-3 xenograft tumor growth in nude mice (n=6).
The efficacy studies were therefore repeated with OSU-A9M and OSU-A9F, following 42 days and 49 days treatment, respectively, versus OSU-A9 with 49-day treatment.
In all three treatments, the body weights of drug-treated mice were not affected. No signs of overt toxicity were observed.

[2] = system: PC-3 prostate cancer cells; test: MTT assay of PC-3 cell viability; type: cell-based; conditions: MTT assay, 24, 48 and 72 h; comparison in words
Method: Each data point represents means±S.D. (n=6). The activity of OSU-A9M versus its parent compound A9 ([1-(3′-nitro-4′-chlorobenzenesulfonyl)-1H-indol-3-yl]-methanol) and its fluorinated counterpart OSU-A9F ([1-(4-Chloro-3-nitro-benzenesulfonyl)-5-fluoro-1H-indol-3-yl])-methanol in suppressing the cell viability of PC-3 prostate cancer cells was compared using the MTT [3-(4,5-dimethylthiazol-2-yl)-2,5-diphenyl-2H-tetrazolium bromide] assay. Cancer cells and PrECs were grown in 5% FBS-supplemented RPMI 1640 medium or 5% FBS-supplemented prostate epithelial growth medium, respectively, in 96-well, flat-bottomed plates for 24 h, and then exposed to various concentrations of test agents in the same medium for the indicated time intervals. Controls received DMSO vehicle at a concentration equal to that in drug-treated cells. At the end of the treatment, the medium was removed, replaced by 200 μL of 0.5 mg/mL of MTT in the same medium, and cells were incubated in the CO2 incubator at 37° C. for 2 h. Supernatants were removed from the wells, and the reduced MTT dye was solubilized in 200 μL/well DMSO. Absorbance at 570 nm was determined on a plate reader.

SMILES | Tumor growth suppression in the PC-3 model [1] | In vitro potency against the viability of PC-3 cells [2]
O=[N+]([O-])c1cc(S(=O)(=O)n2cc(CO)c3ccccc32)ccc1Cl [OSU-A9, [1-(3′-nitro-4′-chlorobenzenesulfonyl)-1H-indol-3-yl]-methanol, reference compound] | significant tumor growth suppression | –
O=[N+]([O-])c1cc(S(=O)(=O)n2cc(CO)c3cc(F)ccc32)ccc1Cl [OSU-A9F, reference compound] | – | greater than or similar to that of OSU-A9
